This is an account of results in US8987321B2, “Lisofylline analogs and methods for use” (University of Virginia Patent Foundation, priority 2005, dated 2015).

The structures appear in SMILES notation.

One data set in a line: Solubility. The format is physicochemical. To be noted: in words. The method, then: Further evaluations were performed for some of the LSF analogs in MDS assays, solubility, oral bioavailability, and stability (see Table 1).
In data set [1] the test system is mouse-origin β-TC6 cells. Briefly: Insulin release, pancreatic β cell lines. As to conditions: mouse islet cell line. Format: cell-based. The method, then:
(§1) The disclosed analogs (CPW1-15) were evaluated in pancreatic β cell lines for apoptosis protection after treatment with inflammatory cytokines (reflected by reduced OD450) and insulin-release (see FIGS. 5 and 6).
At the end of treatment, cells are washed with Krebs-Ringer-bicarbonate-HEPES buffer (KR13) containing in mM: 134 NaCl, 4.7 KCl, 1.2 KH2P04, 1.2 MgS04, 1.0 CaCI2, 10 HEPES, and 0.1% bovine serum albumin at 37° C., at a pH of 7.4. The cells are pre incubated in the same buffer for 30 min followed by 60-min incubation in KRB supplemented with 15 mM D-glucose (J. T. Baker, Phillisburg, N.J.). The supernatant is harvested and subjected to centrifugation to eliminate residue cells. Insulin secreted into the supernatant is measured using EIA with mouse insulin as a standard. The results are illustrated in FIGS. 9A-9P.

A further data set relates to Caco-2. Briefly: Caco-2 permeability test. The format is in vitro ADME.
In data set [2] the test system is mouse-origin β-TC6 cells. Briefly: β-cell apoptosis protection after inflammatory cytokines, pancreatic β cell lines. Format: cell-based. As to conditions: mouse islet cell line. How it is done: as §1
The β-TC6 cell line is maintained in RPMI 1640 medium (Life Technologies, Rockville, Md.) supplemented with 10% heat inactivated fetal bovine serum, 10 mM HEPES, […] L-glutamine, 50 units/ml penicillin and 50 μg/ml streptomycin at pH 7.4. The cells are cultured in a 37° C., humidified incubator supplied with 5% carbon dioxide. Fresh media is replaced every two days. Unless otherwise stated, the cells are plated at a density of 10^5/cm^2. Culture vessels (dishes and chamber slides) used for experiments were coated with poly-D-lysine and gelatin (Sigma, St. Louis, Mo.) to retain detached and dead cells so that seeding cell numbers reflect the actual cell numbers after all treatment conditions.
β-TC6 cells are treated with vehicle alone or with the combination of recombinant mouse IL-1β (5 ng/ml), IFN-γ (100 ng/ml) and TNF-α (10 ng/ml) (R&D Systems, Minneapolis, Minn.) suspended in complete RPMI medium. LSF (Cell Therapeutics, Inc. Seattle, Wash.) or the analogs are added simultaneously with the cytokines in complete RPMI medium in the concentrations ranging 1 nM-[…]. All treatments are conducted for 18 hours. The results are illustrated in FIGS. 5A-8P.

`C[C@@H](O)CCCCOc1n[nH]c(=O)c2ccccc12` [CPW12]: the solubility result in the data set “Solubility” is reported as “acceptable”. Further, the insulin release result in the data set on mouse-origin β-TC6 cells [1] is “positive effects”. In addition, the “Caco-2 permeability test results” value in the data set on Caco-2 is “could be orally absorbed from the GI track”. Moreover, in the data set with mouse-origin β-TC6 cells [2], the β-cell protection result is on record as “positive effects”.
